Source: patent US20220235057A1, “CYCLIC FORMYL AND CYCLIC KETONE COMPOUNDS, PREPARATION METHOD THEREFOR, AND PHARMACEUTICAL USE” (priority 2019, published 2022)

Tested on: drug resistant strains of Acinetobacter baumannii
Test: anti-drug resistant strains of Acinetobacter baumannii (inhibition zone); note: test concentration or dose not given here
Assay type: cell-based
[1] = resistant strain of Acinetobacter baumannii no. 16
[2] = resistant strain of Acinetobacter baumannii no. 17
[3] = resistant strain of Acinetobacter baumannii no. 18
[4] = resistant strain of Acinetobacter baumannii no. 19
[5] = resistant strain of Acinetobacter baumannii no. 20

Row | Structure (SMILES) | inhibition zone, diameter [1] [mm] | inhibition zone, diameter [2] [mm] | inhibition zone, diameter [3] [mm] | inhibition zone, diameter [4] [mm] | inhibition zone, diameter [5] [mm]
1 | O=C1C2CCCCN2C(c2ccc(O)cc2)N1Nc1ccccc1 (single isomer, unassigned) [ZKD-4A] | 58 | 40 | 66 | 68 | 62
2 | O=C1C2CCCCN2C(c2ccc(O)cc2)N1Nc1ccccc1 (single isomer, unassigned) [ZKD-4B] | 68 | 68 | 68 | 68 | 68
3 | COc1ccc(CC2N(Nc3ccccc3)C(=O)C3CCCCN32)cc1O (single isomer, unassigned) [ZKD-12A] | 65 | 68 | 68 | 58 | 68
4 | COc1ccc(CC2N(Nc3ccccc3)C(=O)C3CCCCN32)cc1O (single isomer, unassigned) [ZKD-12B] | 68 | 68 | 55 | 60 | 68
5 | COc1ccc(CC2N(Nc3ccccc3)C(=O)C3CCCCN32)cc1OC (single isomer, unassigned) [ZKD-13A] | 68 | 68 | 68 | 64 | 68
6 | COc1ccc(CC2N(Nc3ccccc3)C(=O)C3CCCCN32)cc1OC (single isomer, unassigned) [ZKD-13B] | 68 | 68 | 36 | 64 | 68
7 | COc1cc(CC2N(Nc3ccccc3)C(=O)C3CCCCN32)ccc1O (single isomer, unassigned) [ZKD-14A] | 68 | 68 | 45 | 64 | 68
8 | COc1cc(CC2N(Nc3ccccc3)C(=O)C3CCCCN32)ccc1O (single isomer, unassigned) [ZKD-14B] | 54 | 53 | 34 | 68 | 68
9 | O=C(NNc1ccc(F)cc1)c1ccc2cc[nH]c2c1 [ZBM-24] | 38 | 68 | 6 | 50 | 68
10 | O=C(NNc1ccc(F)cc1)c1ncc[nH]1 [ZBM-28] | 51 | 68 | 64 | 64 | 68
11 | Cn1cnc(C(=O)NNc2ccc(F)cc2)c1 [ZBM-29] | 51 | 68 | 48 | 68 | 68
12 | Cn1cncc1C(=O)NNc1ccc(F)cc1 [ZBM-30] | 45 | 68 | 45 | 68 | 68
13 | O=C(NNc1ccc(F)cc1)c1cc2ccc(Cl)cc2[nH]1 [ZBM-36] | 30 | 58 | 21 | 68 | 68
14 | O=C1C2CCCCN2[C@H](c2ccco2)N1Nc1ccccc1 (stereo partly shown) [ZKD-5A] | 68 | 68 | 68 | 68 | 68
15 | O=C1C2CCCCN2[C@@H](c2ccco2)N1Nc1ccccc1 (stereo partly shown) [ZKD-5B] | 68 | 48 | 48 | 55 | 68
16 | COc1ccc(C2N(Nc3ccccc3)C(=O)C3CCCCN32)cc1OC (stereo not shown) [ZKD-6A] | 45 | 43 | 20 | 25 | 64
17 | COc1ccc([C@H]2N(Nc3ccccc3)C(=O)C3CCCCN32)cc1OC (stereo partly shown) [ZKD-6B] | 16 | 17 | 16 | 20 | 40
18 | O=C1C2CCCCN2C(c2ccc(B(O)O)cc2)N1Nc1ccccc1 (stereo not shown) [ZKD-10A] | 56 | 53 | 55 | 48 | 68
19 | O=C1C2CCCCN2[C@@H](c2ccc(B(O)O)cc2)N1Nc1ccccc1 (stereo partly shown) [ZKD-10B] | 39 | 48 | 45 | 46 | 54
20 | CC1(C)OB(c2ccc([C@@H]3N(Nc4ccccc4)C(=O)C4CCCCN43)cc2)OC1(C)C (stereo partly shown) [ZKD-15A] | 46 | 50 | 40 | 68 | 68
21 | CC1(C)OB(c2ccc([C@H]3N(Nc4ccccc4)C(=O)C4CCCCN43)cc2)OC1(C)C (stereo partly shown) [ZKD-15B] | 67 | 68 | 40 | 68 | 68
22 | O=C(NNc1ccc(F)cc1)C1CCCCN1 (stereo not shown) [ZKD-17] | 67 | 68 | 36 | 68 | 68
23 | COc1cc([C@@H]2N(Nc3ccccc3)C(=O)C3CCCCN32)ccc1O (stereo partly shown) [ZKD-18A] | 68 | 68 | 68 | 68 | 68
24 | COc1cc(C2N(Nc3ccccc3)C(=O)C3CCCCN32)ccc1O (stereo not shown) [ZKD-18B] | 68 | 68 | 68 | 68 | 68
25 | COc1ccc([C@@H]2N(Nc3ccccc3)C(=O)C3CCCCN32)cc1O (stereo partly shown) [ZKD-19A] | 68 | 68 | 68 | 68 | 68
26 | COc1ccc(C2N(Nc3ccccc3)C(=O)C3CCCCN32)cc1O (stereo not shown) [ZKD-19B] | 68 | 68 | 68 | 68 | 68
